Laboratory results: patent publication US20120022107A1, “2-(PIPERIDIN-1-YL)-4-AZOLYL-THIAZOLE-5-CARBOXYLIC ACID DERIVATIVES AGAINST BACTERIAL INFECTIONS” (ASTRAZENECA AB, priority 2008, published 2012)
≈ marks a conversion by molar mass, not a printed value.

Legend:
Msmeg = Msmeg (Mycolicibacterium smegmatis, UniProt A0QNE0); experiment: Msmeg IC50; assay type: biochemical
Sau = Sau MIC; assay type: cell-based, Staphylococcus aureus; conditions: for MIC: Staphylococcus aureus, read-out: Sau_MIC
Spn = Spn MIC; assay type: cell-based, Streptococcus pneumoniae; conditions: for MIC: Streptococcus pneumoniae, read-out: Spn_MIC
M. tuberculosis = experiment: MIC testing: Microplate Alamar Blue Assay; assay type: cell-based, Mycobacterium tuberculosis; conditions: lowest concentration preventing color change from blue to pink; for MIC: Mycobacterium tuberculosis, read-out: Mtu MIC
Hinf = Hinf MIC; assay type: cell-based, Haemophilus influenzae; conditions: for MIC: Haemophilus influenzae, read-out: Hinf_MIC

Msmeg, sequence (A0QNE0 whole entry): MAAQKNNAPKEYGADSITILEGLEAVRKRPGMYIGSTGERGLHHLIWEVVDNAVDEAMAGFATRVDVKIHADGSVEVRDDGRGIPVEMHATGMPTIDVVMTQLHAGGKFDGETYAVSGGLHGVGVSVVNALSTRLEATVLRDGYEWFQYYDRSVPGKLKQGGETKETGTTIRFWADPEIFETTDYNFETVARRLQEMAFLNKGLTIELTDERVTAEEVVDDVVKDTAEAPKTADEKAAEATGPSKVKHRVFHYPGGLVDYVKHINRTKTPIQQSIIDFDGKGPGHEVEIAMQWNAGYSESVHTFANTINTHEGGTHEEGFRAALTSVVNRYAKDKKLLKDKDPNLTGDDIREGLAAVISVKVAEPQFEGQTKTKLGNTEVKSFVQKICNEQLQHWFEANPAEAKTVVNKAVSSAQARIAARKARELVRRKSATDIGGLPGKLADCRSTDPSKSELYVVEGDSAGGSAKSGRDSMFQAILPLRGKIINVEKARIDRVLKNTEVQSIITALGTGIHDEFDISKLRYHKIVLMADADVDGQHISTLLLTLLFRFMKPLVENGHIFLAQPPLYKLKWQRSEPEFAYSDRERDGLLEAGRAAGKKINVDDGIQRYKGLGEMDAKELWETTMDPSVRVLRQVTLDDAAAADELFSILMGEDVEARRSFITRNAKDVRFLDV

Compound	IC50 (Msmeg) [nM]	MIC (Sau) [µg/mL]	MIC (Spn) [µg/mL]	MIC (M. tuberculosis) [µg/mL]	MIC (Hinf) [µg/mL]	Sau_MIC (Sau) [µg/mL]	Spn_MIC (Spn) [µg/mL]	Mtu MIC (M. tuberculosis) [µg/mL]	Hinf_MIC (Hinf) [µg/mL]
CO[C@H]1CN(c2nc(-c3ncnn3C)c(C(=O)O)s2)CC[C@H]1NC(=O)c1[nH]c(C)c(Br)c1Cl [Example 2, 2-((3S,4R)-4-{[4-Bromo-3-chloro-5-methyl-1H-pyrrole-2-carbonyl]amino}-3-methoxypiperidin-1-yl)-4-(1-methyl-1H-1,2,4-triazol-5-yl)-1,3-thiazole-5-carboxylic acid]	< 4	0.1 (≈ 0.179 µM)	0.1 (≈ 0.179 µM)	< 0.03	2.6 (≈ 4.65 µM)	–	–	–	–
Cc1[nH]c(C(=O)N[C@@H]2CCN(c3nc(-c4ncnn4C)c(C(=O)O)s3)C[C@@H]2F)c(Cl)c1Br [Example 6, 2-((3S,4R)-4-{[(4-Bromo-3-chloro-5-methyl-1H-pyrrol-2-yl)carbonyl]amino}-3-fluoropiperidin-1-yl)-4-(1-methyl-1H-1,2,4-triazol-5-yl)-1,3-thiazole-5-carboxylic acid]	5	0.125 (≈ 0.229 µM)	0.5 (≈ 0.914 µM)	1 (≈ 1.83 µM)	0.25 (≈ 0.457 µM)	–	–	–	–
CCO[C@H]1CN(c2nc(-c3ncnn3C)c(C(=O)O)s2)CC[C@H]1NC(=O)c1[nH]c(C)c(Br)c1Cl [Example 11, 2-((3S,4R)-4-(4-bromo-3-chloro-5-methyl-1H-pyrrole-2-carboxamido)-3-ethoxypiperidin-1-yl)-4-(1-methyl-1H-1,2,4-triazol-5-yl) thiazole-5-carboxylic acid]	< 2.5	0.125 (≈ 0.218 µM)	0.125 (≈ 0.218 µM)	0.06 (≈ 0.105 µM)	–	–	–	–	–
CO[C@H]1CN(c2nc(-c3nccn3C)c(C(=O)O)s2)CC[C@H]1NC(=O)c1[nH]c(C)c(Cl)c1Br [Example 3, 2-((3S,4R)-4-{[(3-bromo-4-chloro-5-methyl-1H-pyrrol-2-yl)carbonyl]amino}-3-methoxypiperidin-1-yl)-4-(1-methyl-1H-imidazol-2-yl)-1,3-thiazole-5-carboxylic acid]	6	0.125 (≈ 0.224 µM)	0.125 (≈ 0.224 µM)	0.125 (≈ 0.224 µM)	0.25 (≈ 0.448 µM)	–	–	–	–
COCCn1ncnc1-c1nc(N2CC[C@@H](NC(=O)c3[nH]c(C)c(Cl)c3Br)[C@@H](F)C2)sc1C(=O)O [Example 20, 2-((3S,4R)-4-(3-bromo-4-chloro-5-methyl-1H-pyrrole-2-carboxamido)-3-fluoropiperidin-1-yl)-4-(1-(2-methoxyethyl)-1H-1,2,4-triazol-5-yl) thiazole-5-carboxylic acid]	4	0.125 (≈ 0.212 µM)	0.125 (≈ 0.212 µM)	0.125 (≈ 0.212 µM)	0.125 (≈ 0.212 µM)	–	–	–	–
CO[C@H]1CN(c2nc(-c3ncnn3C)c(C(=O)O)s2)CC[C@H]1NC(=O)c1[nH]c(C)c(Br)c1C#N [Example 9, 2-{(3S,4R)-4-[(4-Bromo-3-cyano-5-methyl-1H-pyrrole-2-carbonyl)-amino]-3-methoxy-piperidin-1-yl}-4-(2-methyl-2H-[1,2,4]triazol-3-yl)-thiazole-5-carboxylic acid]	10	0.25 (≈ 0.455 µM)	0.125 (≈ 0.228 µM)	0.015 (≈ 0.0273 µM)	0.25 (≈ 0.455 µM)	–	–	–	–
CCn1ncnc1-c1nc(N2CC[C@@H](NC(=O)c3[nH]c(C)c(Cl)c3Br)[C@@H](OC)C2)sc1C(=O)O [Example 13, 2-((3S,4R)-4-(3-bromo-4-chloro-5-methyl-1H-pyrrole-2-carboxamido)-3-methoxypiperidin-1-yl)-4-(1-ethyl-1H-1,2,4-triazol-5-yl) thiazole-5-carboxylic acid]	< 2.5	0.125 (≈ 0.218 µM)	0.125 (≈ 0.218 µM)	0.015 (≈ 0.0262 µM)	0.125 (≈ 0.218 µM)	–	–	–	–
CO[C@H]1CN(c2nc(-c3ncnn3C)c(C(=O)O)s2)CC[C@H]1NC(=O)c1[nH]c(C)c(C#N)c1Br [Example 8, 2-{(3S,4R)-4-[(3-Bromo-4-cyano-5-methyl-1H-pyrrole-2-carbonyl)-amino]-3-methoxy-piperidin-1-yl}-4-(2-methyl-2H-[1,2,4]triazol-3-yl)-thiazole-5-carboxylic acid]	< 0.25	0.5 (≈ 0.91 µM)	0.125 (≈ 0.228 µM)	< 0.03	2 (≈ 3.64 µM)	–	–	–	–
CCn1ncnc1-c1nc(N2CC[C@@H](NC(=O)c3[nH]c(Cl)c(C)c3Cl)[C@@H](OC)C2)sc1C(=O)O [Example 15, 2-{(3S,4R)-4-[(3,5-Dichloro-4-methyl-1H-pyrrole-2-carbonyl)-amino]-3-methoxy-piperidin-1-yl}-4-(2-ethyl-2H-[1,2,4]triazol-3-yl)-thiazole-5-carboxylic acid]	45	0.25 (≈ 0.473 µM)	0.25 (≈ 0.473 µM)	0.5 (≈ 0.946 µM)	1 (≈ 1.89 µM)	–	–	–	–
2-((3S,4R)-4-(3-bromo-4-chloro-5-methyl-1H-pyrrole-2- carboxamido)-3-fluoropiperidin-1-yl)-4-(1- (cyclopropylmethyl)-1H-1,2,4-triazol-5-yl) thiazole-5- carboxylic acid [Example 17]	4	–	–	–	–	0.125	0.125	0.06	0.125
Cc1[nH]c(C(=O)N[C@@H]2CCN(c3nc(-c4ncnn4C)c(C(=O)O)s3)C[C@@H]2F)c(Br)c1Cl [Example 5, 2-((3S,4R)-4-{[(3-Bromo-4-chloro-5-methyl-1H-pyrrol-2-yl)carbonyl]amino}-3-fluoropiperidin-1-yl)-4-(1-methyl-1H-1,2,4-triazol-5-yl)-1,3-thiazole-5-carboxylic acid]	< 4	0.106 (≈ 0.194 µM)	0.106 (≈ 0.194 µM)	< 0.06	27.3 (≈ 50 µM)	–	–	–	–
CO[C@H]1CN(c2nc(-c3ncnn3C)c(C(=O)O)s2)CC[C@H]1NC(=O)c1[nH]c(Cl)c(C)c1Cl [Example 4, 2-((3S,4R)-4-{[(3,5-Dichloro-4-methyl-1H-pyrrol-2-yl)carbonyl]amino}-3-methoxypiperidin-1-yl)-4-(1-methyl-1H-1,2,4-triazol-5-yl)-1,3-thiazole-5-carboxylic acid]	30	1.26 (≈ 2.45 µM)	0.1 (≈ 0.194 µM)	0.125 (≈ 0.243 µM)	4 (≈ 7.78 µM)	–	–	–	–
CCO[C@H]1CN(c2nc(-c3ncnn3C)c(C(=O)O)s2)CC[C@H]1NC(=O)c1[nH]c(C)c(Cl)c1Br [Example 10]	< 2.5	0.125 (≈ 0.218 µM)	0.125 (≈ 0.218 µM)	0.008 (≈ 0.014 µM)	0.125 (≈ 0.218 µM)	–	–	–	–
CO[C@H]1CN(c2nc(-c3ncnn3CC3CC3)c(C(=O)O)s2)CC[C@H]1NC(=O)c1[nH]c(C)c(Cl)c1Br [Example 16, 2-((3S,4R)-4-(3-bromo-4-chloro-5-methyl-1H-pyrrole-2-carboxamido)-3-methoxypiperidin-1-yl)-4-(1-(cyclopropylmethyl)-1H-1,2,4-triazole-5-yl) thiazole-5-carboxylic acid]	< 2.5	8 (≈ 13.4 µM)	0.25 (≈ 0.417 µM)	0.03 (≈ 0.0501 µM)	0.25 (≈ 0.417 µM)	–	–	–	–
COCCn1ncnc1-c1nc(N2CC[C@@H](NC(=O)c3[nH]c(C)c(Br)c3Cl)[C@@H](OC)C2)sc1C(=O)O [Example 21, 2-((3S,4R)-4-(4-bromo-3-chloro-5-methyl-1H-pyrrole-2-carboxamido)-3-methoxypiperidin-1-yl)-4-(1-(2-methoxyethyl)-1H-1,2,4-triazol-5-yl) thiazole-5-carboxylic acid]	< 2.5	0.125 (≈ 0.207 µM)	0.125 (≈ 0.207 µM)	0.06 (≈ 0.0995 µM)	–	–	–	–	–
COCCn1ncnc1-c1nc(N2CC[C@@H](NC(=O)c3[nH]c(Cl)c(C)c3Cl)[C@@H](OC)C2)sc1C(=O)O [Example 22, 2-((3S,4R)-4-(3,5-dichloro-4-methyl-1H-pyrrole-2-carboxamido)-3-methoxypiperidin-1-yl)-4-(1-(2-methoxyethyl)-1H-1,2,4-triazol-5-yl) thiazole-5-carboxylic acid]	47	0.25 (≈ 0.448 µM)	0.5 (≈ 0.895 µM)	0.5 (≈ 0.895 µM)	–	–	–	–	–
CO[C@H]1CN(c2nc(-c3ncnn3CC3CC3)c(C(=O)O)s2)CC[C@H]1NC(=O)c1[nH]c(C)c(Br)c1Cl [Example 18, 2-((3S,4R)-4-(4-bromo-3-chloro-5-methyl-1H-pyrrole-2-carboxamido)-3-methoxypiperidin-1-yl)-4-(1-(cyclopropylmethyl)-1H-1,2,4-triazol-5-yl) thiazole-5-carboxylic acid]	4	0.125 (≈ 0.209 µM)	0.25 (≈ 0.417 µM)	0.06 (≈ 0.1 µM)	0.5 (≈ 0.835 µM)	–	–	–	–
COCCn1ccnc1-c1nc(N2CC[C@@H](NC(=O)c3[nH]c(C)c(Cl)c3Br)[C@@H](OC)C2)sc1C(=O)O [Example 7, 2-((3S,4R)-4-{[(3-Bromo-4-chloro-5-methyl-1H-pyrrol-2-yl)carbonyl]amino}-3-methoxypiperidin-1-yl)-4-[1-(2-methoxyethyl)-1H-imidazol-2-yl]-1,3-thiazole-5-carboxylic acid]	4.6	0.125 (≈ 0.208 µM)	0.125 (≈ 0.208 µM)	1 (≈ 1.66 µM)	0.25 (≈ 0.415 µM)	–	–	–	–
Cc1[nH]c(C(=O)N[C@@H]2CCN(c3nc(-c4ncnn4C)c(C(=O)O)s3)C[C@@H]2OCC2CC2)c(Br)c1Cl [Example 12, 2-((3S,4R)-4-(3-bromo-4-chloro-5-methyl-1H-pyrrole-2-carboxamido)-3-(cyclopropylmethoxy)piperidin-1-yl)-4-(1-methyl-1H-1,2,4-triazol-5-yl) thiazole-5-carboxylic acid]	4	0.125 (≈ 0.209 µM)	0.125 (≈ 0.209 µM)	0.015 (≈ 0.025 µM)	0.125 (≈ 0.209 µM)	–	–	–	–
CO[C@H]1CN(c2nc(-c3ncnn3C)c(C(=O)O)s2)CC[C@H]1NC(=O)c1[nH]c(C)c(Cl)c1Br [Example 1, 2-((3S,4R)-4-{[3-Bromo-4-chloro-5-methyl-1H-pyrrole-2-carbonyl]amino}-3-methoxypiperidin-1-yl)-4-(1-methyl-1H-1,2,4-triazol-5-yl)-1,3-thiazole-5-carboxylic acid]	2.6	0.116 (≈ 0.208 µM)	0.116 (≈ 0.208 µM)	0.008 (≈ 0.0143 µM)	8 (≈ 14.3 µM)	–	–	–	–
